# According to ChEMBL document CHEMBL3286119, “Biarylmethoxy Nicotinamides As Novel and Specific Inhibitors of Mycobacterium tuberculosis” (ACS Med Chem Lett, 2014):
# Calls of active or inactive are those of the source. The calls are words filed in the database; no cut-off is given here.
# System: Mycobacterium tuberculosis
# Assay: Antimicrobial activity against Mycobacterium tuberculosis Harlingen after 2 to 3 weeks
# Format: functional, organism-based
# Conditions: not given
row,Compound,Activity
1,COCCOc1ccc(-c2ccc(COc3ncccc3C(N)=O)nc2)c(C)c1,Active
2,CC(C)OCCOc1ccc(-c2cnc(COc3ncccc3C(N)=O)nc2)c(Cl)c1,Active
3,NC(=O)c1cccnc1OCc1ncc(-c2ccc(OCCCF)cc2Cl)cn1,Active

# System: Staphylococcus aureus
# Assay: Antimicrobial activity against Staphylococcus aureus ARC517 after 5 days by microdilution method
# Format: functional
# Conditions: ARC517, 120 h
row,Compound,MIC80
1,CC(C)OCCOc1ccc(-c2cnc(COc3ncccc3C(N)=O)nc2)c(Cl)c1,> 60 µM
2,NC(=O)c1cccnc1OCc1ncc(-c2ccc(OCCCF)cc2Cl)cn1,> 60 µM

# System: Haemophilus influenzae
# Assay: Antimicrobial activity against Haemophilus influenzae ARC158 after 5 days by microdilution method
# Format: functional
# Conditions: ARC158, 120 h
row,Compound,MIC80
1,CC(C)OCCOc1ccc(-c2cnc(COc3ncccc3C(N)=O)nc2)c(Cl)c1,> 60 µM
2,NC(=O)c1cccnc1OCc1ncc(-c2ccc(OCCCF)cc2Cl)cn1,> 60 µM

# System: Escherichia coli
# Assay: Antimicrobial activity against Escherichia coli ARC524 after 5 days by microdilution method
# Format: functional
# Conditions: ARC524, 120 h
row,Compound,MIC80
1,CC(C)OCCOc1ccc(-c2cnc(COc3ncccc3C(N)=O)nc2)c(Cl)c1,> 60 µM
2,NC(=O)c1cccnc1OCc1ncc(-c2ccc(OCCCF)cc2Cl)cn1,> 60 µM

# System: Streptococcus pyogenes
# Assay: Antimicrobial activity against Streptococcus pyogenes after 5 days by microdilution method
# Format: functional
# Conditions: 120 h
row,Compound,MIC80
1,CC(C)OCCOc1ccc(-c2cnc(COc3ncccc3C(N)=O)nc2)c(Cl)c1,> 60 µM
2,NC(=O)c1cccnc1OCc1ncc(-c2ccc(OCCCF)cc2Cl)cn1,> 60 µM

# System: not listed separately
# Assay: Selectivity index, ratio of MIC for human THP1 cells to MIC for Mycobacterium tuberculosis H37Rv ATCC 27294
# Format: toxicity, cell-based, THP-1
# Conditions: read-out: Selectivity Index
row,Compound,selectivity ratio
1,CC(C)OCCOc1ccc(-c2cnc(COc3ncccc3C(N)=O)nc2)c(Cl)c1,> 2500

# Target: Cytochrome P450 3A4 (Homo sapiens, UniProt P08684)
# Sequence (P08684 whole entry): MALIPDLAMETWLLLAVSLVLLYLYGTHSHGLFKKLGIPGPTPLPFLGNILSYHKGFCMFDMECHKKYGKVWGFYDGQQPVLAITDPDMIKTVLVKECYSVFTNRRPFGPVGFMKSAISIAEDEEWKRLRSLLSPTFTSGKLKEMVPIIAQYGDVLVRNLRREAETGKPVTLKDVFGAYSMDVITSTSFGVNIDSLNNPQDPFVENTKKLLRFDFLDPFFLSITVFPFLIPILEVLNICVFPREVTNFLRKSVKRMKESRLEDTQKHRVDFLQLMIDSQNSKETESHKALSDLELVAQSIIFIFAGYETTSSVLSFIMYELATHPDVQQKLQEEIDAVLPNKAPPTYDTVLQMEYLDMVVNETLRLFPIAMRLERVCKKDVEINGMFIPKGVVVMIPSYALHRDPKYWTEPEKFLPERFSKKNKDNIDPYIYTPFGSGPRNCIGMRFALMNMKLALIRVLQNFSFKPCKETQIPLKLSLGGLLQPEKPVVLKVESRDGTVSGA
# Assay: Inhibition of CYP3A4 (unknown origin)
# Format: ADME
# Conditions: not given
row,Compound,inhibition (INH)
1,COCCOc1ccc(-c2ccc(COc3ncccc3C(N)=O)nc2)c(C)c1,Not Active

# System: Mycobacterium tuberculosis
# Assay: Antimicrobial activity against Mycobacterium tuberculosis Erdman after 2 to 3 weeks
# Format: functional, organism-based
# Conditions: not given
row,Compound,Activity
1,COCCOc1ccc(-c2ccc(COc3ncccc3C(N)=O)nc2)c(C)c1,Active
2,CC(C)OCCOc1ccc(-c2cnc(COc3ncccc3C(N)=O)nc2)c(Cl)c1,Active
3,NC(=O)c1cccnc1OCc1ncc(-c2ccc(OCCCF)cc2Cl)cn1,Active

# System: Mycobacterium tuberculosis
# Assay: Antimicrobial activity against Mycobacterium tuberculosis 97A clinical isolate after 2 to 3 weeks
# Format: functional, organism-based
# Conditions: not given
row,Compound,Activity
1,COCCOc1ccc(-c2ccc(COc3ncccc3C(N)=O)nc2)c(C)c1,Active
2,CC(C)OCCOc1ccc(-c2cnc(COc3ncccc3C(N)=O)nc2)c(Cl)c1,Active
3,NC(=O)c1cccnc1OCc1ncc(-c2ccc(OCCCF)cc2Cl)cn1,Active

# System: Mycobacterium tuberculosis
# Assay: Antimicrobial activity against Mycobacterium tuberculosis DKU220 clinical isolate after 2 to 3 weeks
# Format: functional, organism-based
# Conditions: not given
row,Compound,Activity
1,COCCOc1ccc(-c2ccc(COc3ncccc3C(N)=O)nc2)c(C)c1,Active
2,CC(C)OCCOc1ccc(-c2cnc(COc3ncccc3C(N)=O)nc2)c(Cl)c1,Active
3,NC(=O)c1cccnc1OCc1ncc(-c2ccc(OCCCF)cc2Cl)cn1,Active

# System: Candida albicans
# Assay: Antimicrobial activity against Candida albicans ARC526 after 5 days by microdilution method
# Format: functional
# Conditions: ARC526, 120 h
row,Compound,MIC80
1,CC(C)OCCOc1ccc(-c2cnc(COc3ncccc3C(N)=O)nc2)c(Cl)c1,> 60 µM
2,NC(=O)c1cccnc1OCc1ncc(-c2ccc(OCCCF)cc2Cl)cn1,> 60 µM

# System: Mycobacterium tuberculosis
# Assay: Antimicrobial activity against Mycobacterium tuberculosis ATCC 25618 after 2 to 3 weeks
# Format: functional, organism-based
# Conditions: not given
row,Compound,Activity
1,COCCOc1ccc(-c2ccc(COc3ncccc3C(N)=O)nc2)c(C)c1,Active
2,CC(C)OCCOc1ccc(-c2cnc(COc3ncccc3C(N)=O)nc2)c(Cl)c1,Active
3,NC(=O)c1cccnc1OCc1ncc(-c2ccc(OCCCF)cc2Cl)cn1,Active

# System: Mycobacterium tuberculosis
# Assay: Antimicrobial activity against Mycobacterium tuberculosis DKU 76 clinical isolate after 2 to 3 weeks
# Format: functional, organism-based
# Conditions: not given
row,Compound,Activity
1,COCCOc1ccc(-c2ccc(COc3ncccc3C(N)=O)nc2)c(C)c1,Active
2,CC(C)OCCOc1ccc(-c2cnc(COc3ncccc3C(N)=O)nc2)c(Cl)c1,Active
3,NC(=O)c1cccnc1OCc1ncc(-c2ccc(OCCCF)cc2Cl)cn1,Active

# System: not listed separately
# Assay: Lipophilicity, log D of the compound
# Format: physicochemical
# Conditions: octanol/water
row,Compound,logD
1,COCCOc1ccc(-c2ccc(COc3ncccc3C(N)=O)nc2)c(C)c1,2.8
2,CC(C)OCCOc1ccc(-c2cnc(COc3ncccc3C(N)=O)nc2)c(Cl)c1,2.8
3,NC(=O)c1cccnc1OCc1ncc(-c2ccc(OCCCF)cc2Cl)cn1,2.8

# System: Klebsiella pneumoniae
# Assay: Antimicrobial activity against Klebsiella pneumoniae ARC1865 after 5 days by microdilution method
# Format: functional
# Conditions: ARC1865, 120 h
row,Compound,MIC80
1,CC(C)OCCOc1ccc(-c2cnc(COc3ncccc3C(N)=O)nc2)c(Cl)c1,> 60 µM
2,NC(=O)c1cccnc1OCc1ncc(-c2ccc(OCCCF)cc2Cl)cn1,> 60 µM

# System: Mycobacterium tuberculosis
# Assay: Antimicrobial activity against Mycobacterium tuberculosis H37Rv ATCC 27294 after 5 days by microdilution method
# Format: functional
# Conditions: H37Rv ATCC 27294, 120 h
row,Compound,MIC
1,COCCOc1ccc(-c2ccc(COc3ncccc3C(N)=O)nc2)c(C)c1,0.6 µM
2,CC(C)OCCOc1ccc(-c2cnc(COc3ncccc3C(N)=O)nc2)c(Cl)c1,0.12 µM
3,NC(=O)c1cccnc1OCc1ncc(-c2ccc(OCCCF)cc2Cl)cn1,0.12 µM

# System: Mycobacterium tuberculosis
# Assay: Antimicrobial activity against Mycobacterium tuberculosis Beijing after 2 to 3 weeks
# Format: functional, organism-based
# Conditions: not given
row,Compound,Activity
1,COCCOc1ccc(-c2ccc(COc3ncccc3C(N)=O)nc2)c(C)c1,Active
2,CC(C)OCCOc1ccc(-c2cnc(COc3ncccc3C(N)=O)nc2)c(Cl)c1,Active
3,NC(=O)c1cccnc1OCc1ncc(-c2ccc(OCCCF)cc2Cl)cn1,Active

# System: Streptococcus pneumoniae
# Assay: Antimicrobial activity against Streptococcus pneumoniae ARC548 after 5 days by microdilution method
# Format: functional
# Conditions: ARC548, 120 h
row,Compound,MIC80
1,CC(C)OCCOc1ccc(-c2cnc(COc3ncccc3C(N)=O)nc2)c(Cl)c1,> 60 µM
2,NC(=O)c1cccnc1OCc1ncc(-c2ccc(OCCCF)cc2Cl)cn1,> 60 µM

# System: not listed separately
# Assay: Cytotoxicity against human THP1 cells after 24 hrs by resazurin assay
# Format: cell-based, THP-1
# Conditions: read-out: MIC
row,Compound,MCC at 24 h
1,COCCOc1ccc(-c2ccc(COc3ncccc3C(N)=O)nc2)c(C)c1,> 50 µM
2,CC(C)OCCOc1ccc(-c2cnc(COc3ncccc3C(N)=O)nc2)c(Cl)c1,> 250 µM
3,NC(=O)c1cccnc1OCc1ncc(-c2ccc(OCCCF)cc2Cl)cn1,> 250 µM

# System: Haemophilus influenzae
# Assay: Antimicrobial activity against Haemophilus influenzae ARC446 after 5 days by microdilution method
# Format: functional
# Conditions: ARC446, 120 h
row,Compound,MIC80
1,CC(C)OCCOc1ccc(-c2cnc(COc3ncccc3C(N)=O)nc2)c(Cl)c1,> 60 µM
2,NC(=O)c1cccnc1OCc1ncc(-c2ccc(OCCCF)cc2Cl)cn1,> 60 µM

# System: Escherichia coli
# Assay: Antimicrobial activity against Escherichia coli ARC523 after 5 days by microdilution method
# Format: functional
# Conditions: ARC523, 120 h
row,Compound,MIC80
1,CC(C)OCCOc1ccc(-c2cnc(COc3ncccc3C(N)=O)nc2)c(Cl)c1,> 60 µM
2,NC(=O)c1cccnc1OCc1ncc(-c2ccc(OCCCF)cc2Cl)cn1,> 60 µM

# System: Mycobacterium tuberculosis
# Assay: Antimicrobial activity against Mycobacterium tuberculosis JALMA clinical isolate after 2 to 3 weeks
# Format: functional, organism-based
# Conditions: not given
row,Compound,Activity
1,COCCOc1ccc(-c2ccc(COc3ncccc3C(N)=O)nc2)c(C)c1,Active
2,CC(C)OCCOc1ccc(-c2cnc(COc3ncccc3C(N)=O)nc2)c(Cl)c1,Active
3,NC(=O)c1cccnc1OCc1ncc(-c2ccc(OCCCF)cc2Cl)cn1,Active

# System: Mycobacterium tuberculosis
# Assay: Antimicrobial activity against Mycobacterium tuberculosis ATCC 35811 after 2 to 3 weeks
# Format: functional, organism-based
# Conditions: not given
row,Compound,Activity
1,COCCOc1ccc(-c2ccc(COc3ncccc3C(N)=O)nc2)c(C)c1,Active
2,CC(C)OCCOc1ccc(-c2cnc(COc3ncccc3C(N)=O)nc2)c(Cl)c1,Active
3,NC(=O)c1cccnc1OCc1ncc(-c2ccc(OCCCF)cc2Cl)cn1,Active

# System: Mycobacterium tuberculosis
# Assay: Antimicrobial activity against ofloxacin Mycobacterium tuberculosis 12119 after 2 to 3 weeks
# Format: functional, organism-based
# Conditions: not given
row,Compound,Activity
1,COCCOc1ccc(-c2ccc(COc3ncccc3C(N)=O)nc2)c(C)c1,Active
2,CC(C)OCCOc1ccc(-c2cnc(COc3ncccc3C(N)=O)nc2)c(Cl)c1,Active
3,NC(=O)c1cccnc1OCc1ncc(-c2ccc(OCCCF)cc2Cl)cn1,Active

# System: Pseudomonas aeruginosa
# Assay: Antimicrobial activity against Pseudomonas aeruginosa ARC546 after 5 days by microdilution method
# Format: functional
# Conditions: ARC546, 120 h
row,Compound,MIC80
1,CC(C)OCCOc1ccc(-c2cnc(COc3ncccc3C(N)=O)nc2)c(Cl)c1,> 60 µM
2,NC(=O)c1cccnc1OCc1ncc(-c2ccc(OCCCF)cc2Cl)cn1,> 60 µM

# Target: T1, Cytochrome P450 1A2 (Homo sapiens, UniProt P05177)
# T1 sequence (P05177 whole entry): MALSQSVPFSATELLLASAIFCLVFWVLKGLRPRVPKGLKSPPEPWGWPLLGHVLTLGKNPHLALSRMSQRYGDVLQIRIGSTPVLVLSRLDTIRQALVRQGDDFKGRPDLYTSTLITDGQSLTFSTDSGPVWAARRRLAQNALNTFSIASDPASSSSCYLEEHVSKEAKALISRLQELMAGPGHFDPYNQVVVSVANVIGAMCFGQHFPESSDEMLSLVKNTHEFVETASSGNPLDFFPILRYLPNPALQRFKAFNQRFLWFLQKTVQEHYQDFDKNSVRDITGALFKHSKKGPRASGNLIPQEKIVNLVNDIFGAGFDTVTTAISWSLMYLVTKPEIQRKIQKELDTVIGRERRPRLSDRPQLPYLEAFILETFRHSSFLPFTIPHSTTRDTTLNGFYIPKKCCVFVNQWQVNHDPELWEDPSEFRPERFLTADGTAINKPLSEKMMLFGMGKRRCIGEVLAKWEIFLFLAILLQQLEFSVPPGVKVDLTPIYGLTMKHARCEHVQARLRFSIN
# Assay: Inhibition of CYP1A2 (unknown origin)
# Format: ADME
# Conditions: not given
row,Compound,inhibition (INH)
1,COCCOc1ccc(-c2ccc(COc3ncccc3C(N)=O)nc2)c(C)c1,Not Active

# Target: Cytochrome P450 2C19 (Homo sapiens, UniProt P33261)
# Sequence (P33261 whole entry): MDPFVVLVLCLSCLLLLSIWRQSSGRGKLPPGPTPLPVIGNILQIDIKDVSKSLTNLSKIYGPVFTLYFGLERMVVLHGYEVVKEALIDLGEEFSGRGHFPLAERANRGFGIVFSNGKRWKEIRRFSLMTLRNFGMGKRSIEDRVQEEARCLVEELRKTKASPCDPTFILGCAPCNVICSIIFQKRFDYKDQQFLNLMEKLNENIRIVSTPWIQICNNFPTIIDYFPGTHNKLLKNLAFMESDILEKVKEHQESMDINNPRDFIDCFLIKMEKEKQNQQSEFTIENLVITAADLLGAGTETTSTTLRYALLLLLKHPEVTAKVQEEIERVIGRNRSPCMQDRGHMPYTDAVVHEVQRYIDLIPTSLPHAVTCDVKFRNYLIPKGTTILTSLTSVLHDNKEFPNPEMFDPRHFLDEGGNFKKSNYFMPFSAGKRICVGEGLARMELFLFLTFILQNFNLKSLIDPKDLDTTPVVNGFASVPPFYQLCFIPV
# Assay: Inhibition of CYP2C19 (unknown origin)
# Format: ADME
# Conditions: not given
row,Compound,IC50
1,NC(=O)c1cccnc1OCc1ncc(-c2ccc(OCCCF)cc2Cl)cn1,18 µM

# System: Mycobacterium tuberculosis
# Assay: Antimicrobial activity against Mycobacterium tuberculosis DKU211 clinical isolate after 2 to 3 weeks
# Format: functional, organism-based
# Conditions: not given
row,Compound,Activity
1,COCCOc1ccc(-c2ccc(COc3ncccc3C(N)=O)nc2)c(C)c1,Active
2,CC(C)OCCOc1ccc(-c2cnc(COc3ncccc3C(N)=O)nc2)c(Cl)c1,Active
3,NC(=O)c1cccnc1OCc1ncc(-c2ccc(OCCCF)cc2Cl)cn1,Active

# Target: Cytochrome P450 2D6 (Homo sapiens, UniProt P10635)
# Sequence (P10635 whole entry): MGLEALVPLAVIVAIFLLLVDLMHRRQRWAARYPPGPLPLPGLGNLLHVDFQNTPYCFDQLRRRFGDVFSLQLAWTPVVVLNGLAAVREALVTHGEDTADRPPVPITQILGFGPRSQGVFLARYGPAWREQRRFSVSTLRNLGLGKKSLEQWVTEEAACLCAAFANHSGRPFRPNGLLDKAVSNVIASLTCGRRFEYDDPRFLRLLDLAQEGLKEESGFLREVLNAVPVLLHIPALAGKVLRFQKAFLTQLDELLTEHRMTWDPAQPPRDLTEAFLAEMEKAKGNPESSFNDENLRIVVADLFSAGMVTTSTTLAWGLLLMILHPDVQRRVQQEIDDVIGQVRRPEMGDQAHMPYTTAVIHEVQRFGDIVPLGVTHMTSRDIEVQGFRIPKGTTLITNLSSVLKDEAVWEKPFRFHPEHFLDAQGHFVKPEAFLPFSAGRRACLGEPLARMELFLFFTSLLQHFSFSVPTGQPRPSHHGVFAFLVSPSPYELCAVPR
# Assay: Inhibition of CYP2D6 (unknown origin)
# Format: ADME
# Conditions: not given
row,Compound,inhibition (INH)
1,COCCOc1ccc(-c2ccc(COc3ncccc3C(N)=O)nc2)c(C)c1,Not Active

# System: Pseudomonas aeruginosa
# Assay: Antimicrobial activity against Pseudomonas aeruginosa ARC545 after 5 days by microdilution method
# Format: functional
# Conditions: ARC545, 120 h
row,Compound,MIC
1,CC(C)OCCOc1ccc(-c2cnc(COc3ncccc3C(N)=O)nc2)c(Cl)c1,> 60 µM
2,NC(=O)c1cccnc1OCc1ncc(-c2ccc(OCCCF)cc2Cl)cn1,> 60 µM

# System: not listed separately
# Assay: Fraction unbound in human plasma
# Format: ADME, cell-free
# Conditions: not given
row,Compound,fraction unbound
1,COCCOc1ccc(-c2ccc(COc3ncccc3C(N)=O)nc2)c(C)c1,0.042

# Target: Cytochrome P450 2C9 (Homo sapiens, UniProt P11712)
# Sequence (P11712 whole entry): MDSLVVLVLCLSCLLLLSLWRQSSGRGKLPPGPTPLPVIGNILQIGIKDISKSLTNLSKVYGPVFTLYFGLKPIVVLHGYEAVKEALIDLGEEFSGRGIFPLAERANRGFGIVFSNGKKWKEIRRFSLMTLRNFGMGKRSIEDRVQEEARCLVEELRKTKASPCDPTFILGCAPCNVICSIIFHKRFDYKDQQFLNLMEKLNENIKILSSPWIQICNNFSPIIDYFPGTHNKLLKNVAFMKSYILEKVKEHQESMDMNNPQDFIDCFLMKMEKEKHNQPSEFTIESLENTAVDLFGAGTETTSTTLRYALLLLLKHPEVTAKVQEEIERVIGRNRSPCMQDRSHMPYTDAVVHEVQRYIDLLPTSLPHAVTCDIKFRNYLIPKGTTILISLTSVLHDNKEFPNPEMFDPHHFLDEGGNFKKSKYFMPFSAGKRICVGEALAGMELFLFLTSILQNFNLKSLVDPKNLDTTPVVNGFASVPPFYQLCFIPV
# Assay: Inhibition of CYP2C9 (unknown origin)
# Format: ADME
# Conditions: not given
row,Compound,IC50
1,CC(C)OCCOc1ccc(-c2cnc(COc3ncccc3C(N)=O)nc2)c(Cl)c1,19 µM
